Source: patent US9247759B2, “Identification of human T2R receptors that respond to bitter compounds that elicit the bitter taste in compositions, and the use thereof in assays to identify compounds that inhibit (block) bitter taste in compositions and use thereof” (SENOMYX, INC., priority 2007, dated 2016)

How the values were obtained:
hT2R10 = hT2R10 (Homo sapiens (Human), UniProt Q9NYW0); assay: hT2R panel inhibition, transient HEK293 G16g44, agonist Strychnine 50 μM; format: cell-based; conditions: HEK293, read-out: screening result against bitter receptor 10, compound at 25 μM; receptor activated to EC80 with the corresponding agonist
hT2R10, sequence (Q9NYW0 whole entry): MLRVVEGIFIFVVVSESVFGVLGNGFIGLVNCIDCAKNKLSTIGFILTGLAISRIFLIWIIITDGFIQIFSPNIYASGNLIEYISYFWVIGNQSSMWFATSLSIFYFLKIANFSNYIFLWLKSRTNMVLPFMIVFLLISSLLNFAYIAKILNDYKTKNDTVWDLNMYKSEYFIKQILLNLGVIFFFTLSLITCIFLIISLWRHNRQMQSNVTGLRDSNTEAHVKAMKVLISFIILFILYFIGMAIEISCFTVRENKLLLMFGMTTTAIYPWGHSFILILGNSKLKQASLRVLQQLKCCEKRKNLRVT

hT2R7 = hT2R7 (Homo sapiens (Human), UniProt Q9NYW3); assay: hT2R panel inhibition, transient HEK293 G16g44, agonist Chloroquine pH6.5 10 mM; format: cell-based; conditions: HEK293, compound at 25 μM; receptor activated to EC80 with the corresponding agonist; read-out: screening result against bitter receptor 7
hT2R7, sequence (Q9NYW3 whole entry): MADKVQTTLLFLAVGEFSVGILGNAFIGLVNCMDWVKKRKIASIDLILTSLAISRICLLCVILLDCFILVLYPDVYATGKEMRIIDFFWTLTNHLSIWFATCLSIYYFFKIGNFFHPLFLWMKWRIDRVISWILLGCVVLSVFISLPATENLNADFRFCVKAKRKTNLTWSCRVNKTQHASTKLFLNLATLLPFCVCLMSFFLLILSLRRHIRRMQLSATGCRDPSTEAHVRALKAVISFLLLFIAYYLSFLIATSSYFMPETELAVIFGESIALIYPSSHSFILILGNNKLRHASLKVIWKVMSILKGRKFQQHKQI
Summary of the method: (§1)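 Compound C tested for reduction of receptor activity evoked by EC80-level bitter agonists, receptor by receptor. Assay cells: HEK293 line stably carrying promiscuous G protein G16g44, transiently transfected with individual human T2Rs.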

hT2R44 = assay: hT2R panel inhibition, transient HEK293 G16g44, agonist Denatonium 0.5 μM; format: cell-based, human; conditions: compound at 25 μM; receptor activated to EC80 with the corresponding agonist
Summary of the method: as §1

hT2R75 = hT2R75 (Homo sapiens (Human), UniProt P59540); assay: hT2R panel inhibition, transient HEK293 G16g44, agonist Strychnine 1 μM; format: cell-based; conditions: HEK293, read-out: screening result against bitter receptor 75, compound at 25 μM; receptor activated to EC80 with the corresponding agonist
hT2R75, sequence (P59540 whole entry): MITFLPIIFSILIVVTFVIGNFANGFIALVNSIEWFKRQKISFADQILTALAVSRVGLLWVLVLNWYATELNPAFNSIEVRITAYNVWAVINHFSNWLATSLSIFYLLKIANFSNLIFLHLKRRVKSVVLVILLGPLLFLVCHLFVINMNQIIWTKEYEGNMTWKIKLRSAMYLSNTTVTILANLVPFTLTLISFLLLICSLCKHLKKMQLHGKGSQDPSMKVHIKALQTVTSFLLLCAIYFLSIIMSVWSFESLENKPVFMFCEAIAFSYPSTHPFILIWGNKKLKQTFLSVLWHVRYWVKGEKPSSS

hT2R9 = hT2R9 (Homo sapiens (Human), UniProt Q9NYW1); assay: hT2R panel inhibition, transient HEK293 G16g44, agonist Ofloxacin 1 mM; format: cell-based; conditions: HEK293, compound at 25 μM; receptor activated to EC80 with the corresponding agonist; read-out: screening result against bitter receptor 9
hT2R9, sequence (Q9NYW1 whole entry): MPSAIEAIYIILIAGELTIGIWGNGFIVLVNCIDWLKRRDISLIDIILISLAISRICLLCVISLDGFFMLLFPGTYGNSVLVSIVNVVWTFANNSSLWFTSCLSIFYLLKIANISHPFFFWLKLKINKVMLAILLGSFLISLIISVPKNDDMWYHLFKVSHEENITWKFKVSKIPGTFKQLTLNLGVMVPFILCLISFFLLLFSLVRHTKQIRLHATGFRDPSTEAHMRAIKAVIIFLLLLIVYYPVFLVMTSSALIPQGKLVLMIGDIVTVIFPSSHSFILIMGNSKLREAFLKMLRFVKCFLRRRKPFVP
Summary of the method: as §1

hT2R65 = assay: hT2R panel inhibition, transient HEK293 G16g44, agonist Oleuropein 1 mM; format: cell-based, human; conditions: compound at 25 μM; receptor activated to EC80 with the corresponding agonist
Summary of the method: as §1

hT2R5 = hT2R5 (Homo sapiens (Human), UniProt Q9NYW4); assay: hT2R panel inhibition, transient HEK293 G16g44, agonist Picoline 10 mM; format: cell-based; conditions: HEK293, compound at 25 μM; receptor activated to EC80 with the corresponding agonist; read-out: screening result against bitter receptor 5
hT2R5, sequence (Q9NYW4 whole entry): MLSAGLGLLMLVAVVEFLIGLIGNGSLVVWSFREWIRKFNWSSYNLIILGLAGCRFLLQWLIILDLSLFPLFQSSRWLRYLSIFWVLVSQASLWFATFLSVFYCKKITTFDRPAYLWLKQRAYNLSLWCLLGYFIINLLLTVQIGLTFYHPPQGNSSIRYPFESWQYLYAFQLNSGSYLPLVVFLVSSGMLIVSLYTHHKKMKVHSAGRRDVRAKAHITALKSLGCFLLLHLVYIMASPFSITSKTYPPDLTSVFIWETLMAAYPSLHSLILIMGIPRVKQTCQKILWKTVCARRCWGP
Summary of the method: as §1

hT2R61 = hT2R61 (Homo sapiens (Human), UniProt P59537); assay: hT2R panel inhibition, transient HEK293 G16g44, agonist Aristolochic Acid 25 nM; format: cell-based; conditions: HEK293, compound at 25 μM; receptor activated to EC80 with the corresponding agonist; read-out: screening result against bitter receptor 61
hT2R61, sequence (P59537 whole entry): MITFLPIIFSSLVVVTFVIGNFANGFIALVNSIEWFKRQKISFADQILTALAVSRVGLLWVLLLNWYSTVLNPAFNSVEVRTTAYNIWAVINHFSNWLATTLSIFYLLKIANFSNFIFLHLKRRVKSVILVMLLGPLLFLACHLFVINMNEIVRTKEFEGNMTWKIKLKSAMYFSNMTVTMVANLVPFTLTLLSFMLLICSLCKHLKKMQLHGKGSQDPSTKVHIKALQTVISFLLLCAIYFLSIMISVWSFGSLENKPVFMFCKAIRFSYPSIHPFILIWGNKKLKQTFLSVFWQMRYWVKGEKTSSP
Summary of the method: as §1

hT2R64 = hT2R64 (Homo sapiens (Human), UniProt P59538); assay: hT2R panel inhibition, transient HEK293 G16g44, agonist Aristolochic Acid 1 μM; format: cell-based; conditions: HEK293, compound at 25 μM; receptor activated to EC80 with the corresponding agonist; read-out: screening result against bitter receptor 64
hT2R64, sequence (P59538 whole entry): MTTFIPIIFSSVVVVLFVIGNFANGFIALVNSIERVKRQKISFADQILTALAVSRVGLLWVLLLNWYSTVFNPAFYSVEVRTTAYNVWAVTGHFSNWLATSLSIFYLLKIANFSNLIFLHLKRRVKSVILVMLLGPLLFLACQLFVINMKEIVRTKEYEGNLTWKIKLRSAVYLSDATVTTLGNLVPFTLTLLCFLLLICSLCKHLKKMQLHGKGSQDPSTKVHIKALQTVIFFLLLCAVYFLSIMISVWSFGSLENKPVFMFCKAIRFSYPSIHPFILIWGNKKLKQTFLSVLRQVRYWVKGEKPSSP
Summary of the method: as §1

hT2R13 = hT2R13 (Homo sapiens (Human), UniProt Q9NYV9); assay: hT2R panel inhibition, transient HEK293 G16g44, agonist Oxyphenonium 1 mM; format: cell-based; conditions: HEK293, compound at 25 μM; receptor activated to EC80 with the corresponding agonist; read-out: screening result against bitter receptor 13
hT2R13, sequence (Q9NYV9 whole entry): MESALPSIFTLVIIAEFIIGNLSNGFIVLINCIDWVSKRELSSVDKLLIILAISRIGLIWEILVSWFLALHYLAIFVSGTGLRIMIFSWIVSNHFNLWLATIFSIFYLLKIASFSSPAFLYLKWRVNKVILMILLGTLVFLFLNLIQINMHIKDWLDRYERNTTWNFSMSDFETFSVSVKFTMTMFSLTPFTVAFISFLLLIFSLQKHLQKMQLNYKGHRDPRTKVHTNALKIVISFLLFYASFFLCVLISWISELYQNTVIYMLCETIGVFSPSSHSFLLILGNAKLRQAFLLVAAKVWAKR
Procedure: Specifically, in order to evaluate the inhibitory selectivity of the Compound C compound, this compound was tested against 22 human T2Rs which were deorphaned by Senomyx. These receptors and the bitter ligands that activate these human T2Rs are reported in earlier patent applications which are incorporated by reference herein. These 22 human T2Rs are hT2R1, 3, 4, 5, 7, 8, 9, 10, 13, 14, 16, 44, 51, 54, 55, 61, 63, 64, 65, 67, 71 and 75. The amino acid and nucleic acid sequences of all of these T2Rs may be found in these earlier patent applications. These human T2Rs were each individually transiently transfected into HEK293 cells that stably express the promiscuous G protein G16g44 and functional assays were effected using these receptors as disclosed in these same patent applications. […] The ligands were used at EC80 concentration levels. The list of bitter ligands utilized and the tested ligand concentrations are contained in Table 5 of this example.
Relating to the foregoing, FIG. 5 contains experimental results wherein Compound C was tested with different agonist compounds. The inhibition activity is represented by the reduction of receptor activity in the presence of Compound C. […] These 13 hT2Rs are hT2R3, 7, 10, 14, 16, 44, 51, 55, 61, 63, 64, 65, and 71.

hT2R71 = hT2R71 (Homo sapiens (Human), UniProt P59536); assay: hT2R panel inhibition, transient HEK293 G16g44, agonist Picric Acid 10 μM; format: cell-based; conditions: HEK293, compound at 25 μM; receptor activated to EC80 with the corresponding agonist; read-out: screening result against bitter receptor 71
hT2R71, sequence (P59536 whole entry): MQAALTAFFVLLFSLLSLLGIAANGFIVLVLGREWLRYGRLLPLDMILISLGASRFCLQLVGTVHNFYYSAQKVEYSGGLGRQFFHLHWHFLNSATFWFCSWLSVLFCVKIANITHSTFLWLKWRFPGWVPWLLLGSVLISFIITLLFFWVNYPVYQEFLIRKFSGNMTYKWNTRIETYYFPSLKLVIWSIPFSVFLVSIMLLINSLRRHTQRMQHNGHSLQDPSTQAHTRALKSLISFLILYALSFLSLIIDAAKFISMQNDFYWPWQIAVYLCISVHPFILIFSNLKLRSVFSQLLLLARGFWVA
Summary of the method: as §1

hT2R63 = assay: hT2R panel inhibition, transient HEK293 G16g44, agonist Caffeine 1 mM or Andrographolide 100 μM; format: cell-based, human; conditions: compound at 25 μM; receptor activated to EC80 with the corresponding agonist
Summary of the method: as §1

hT2R3 = hT2R3 (Homo sapiens (Human), UniProt Q9NYW6); assay: hT2R panel inhibition, transient HEK293 G16g44, agonist Chloroquine pH6.5 50 μM; format: cell-based; conditions: HEK293, compound at 25 μM; receptor activated to EC80 with the corresponding agonist; read-out: screening result against bitter receptor 3
hT2R3, sequence (Q9NYW6 whole entry): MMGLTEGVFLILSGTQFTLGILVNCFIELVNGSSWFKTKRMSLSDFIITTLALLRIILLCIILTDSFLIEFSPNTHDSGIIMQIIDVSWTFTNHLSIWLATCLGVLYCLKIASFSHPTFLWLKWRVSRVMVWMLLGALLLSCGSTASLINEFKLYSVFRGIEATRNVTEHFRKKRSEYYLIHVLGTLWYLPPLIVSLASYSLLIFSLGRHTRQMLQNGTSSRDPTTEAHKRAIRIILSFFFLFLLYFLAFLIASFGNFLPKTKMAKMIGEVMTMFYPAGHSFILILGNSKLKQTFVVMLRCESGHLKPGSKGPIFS
Summary of the method: as §1

hT2R14 [1] = target: T1, hT2R14 (Homo sapiens (Human), UniProt Q9NYV8); assay: hT2R14 antagonist high-throughput FLIPR assay, stable cell line with G16g44, agonist aristolochic acid; format: cell-based; conditions: read-out: IC50 on hT2R14 bitter receptor
T1 sequence (Q9NYV8 whole entry): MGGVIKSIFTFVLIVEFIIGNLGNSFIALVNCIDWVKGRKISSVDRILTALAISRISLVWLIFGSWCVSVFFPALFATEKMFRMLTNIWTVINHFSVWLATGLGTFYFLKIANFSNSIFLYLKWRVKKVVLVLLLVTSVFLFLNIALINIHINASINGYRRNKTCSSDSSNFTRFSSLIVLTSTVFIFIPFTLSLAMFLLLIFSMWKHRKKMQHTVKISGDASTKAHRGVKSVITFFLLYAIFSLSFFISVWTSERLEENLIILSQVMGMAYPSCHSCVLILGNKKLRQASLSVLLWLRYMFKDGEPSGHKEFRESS
Summary of the method: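 Compounds were co-applied with 3 μM aristolochic acid, a dose set to reach 70-80% of maximal hT2R14 activation. Read-out was FLIPR fluorescence in a stable HEK293 line co-expressing hT2R14 and G16g44.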

hT2R14 [2] = target: T1, hT2R14; assay: hT2R panel inhibition, transient HEK293 G16g44, agonist Aristolochic Acid 2 μM; format: cell-based; conditions: HEK293, compound at 25 μM; receptor activated to EC80 with the corresponding agonist; read-out: screening result against bitter receptor 14
Summary of the method: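 Agonist challenge was at EC80, with 0.5 mM andrographolide on hT2R8 and 2 μM aristolochic acid on hT2R14. Inhibition was measured in functional assays in HEK293 cells that stably carry the promiscuous G protein G16g44 and were transiently transfected with the individual receptor.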

hT2R55 = assay: hT2R panel inhibition, transient HEK293 G16g44, agonist Cinchonine 150 μM; format: cell-based, human; conditions: compound at 25 μM; receptor activated to EC80 with the corresponding agonist
Summary of the method: as §1

hT2R16 = hT2R16 (Homo sapiens (Human), UniProt Q9NYV7); assay: hT2R panel inhibition, transient HEK293 G16g44, agonist Salicin 1 mM; format: cell-based; conditions: HEK293, compound at 25 μM; receptor activated to EC80 with the corresponding agonist; read-out: screening result against bitter receptor 16
hT2R16, sequence (Q9NYV7 whole entry): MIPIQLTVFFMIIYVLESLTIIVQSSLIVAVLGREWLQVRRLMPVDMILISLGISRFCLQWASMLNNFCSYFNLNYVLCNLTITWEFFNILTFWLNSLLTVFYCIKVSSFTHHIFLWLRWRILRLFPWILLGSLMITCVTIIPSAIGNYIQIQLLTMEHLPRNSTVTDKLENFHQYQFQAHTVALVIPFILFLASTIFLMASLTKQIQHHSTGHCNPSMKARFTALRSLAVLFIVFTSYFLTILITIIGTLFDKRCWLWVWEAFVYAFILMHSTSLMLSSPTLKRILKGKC
Summary of the method: as §1

hT2R51 = hT2R51 (Homo sapiens (Human), UniProt P59533); assay: hT2R panel inhibition, transient HEK293 G16g44, agonist Prop 2.5 μM; format: cell-based; conditions: HEK293, compound at 25 μM; receptor activated to EC80 with the corresponding agonist; read-out: screening result against bitter receptor 51
hT2R51, sequence (P59533 whole entry): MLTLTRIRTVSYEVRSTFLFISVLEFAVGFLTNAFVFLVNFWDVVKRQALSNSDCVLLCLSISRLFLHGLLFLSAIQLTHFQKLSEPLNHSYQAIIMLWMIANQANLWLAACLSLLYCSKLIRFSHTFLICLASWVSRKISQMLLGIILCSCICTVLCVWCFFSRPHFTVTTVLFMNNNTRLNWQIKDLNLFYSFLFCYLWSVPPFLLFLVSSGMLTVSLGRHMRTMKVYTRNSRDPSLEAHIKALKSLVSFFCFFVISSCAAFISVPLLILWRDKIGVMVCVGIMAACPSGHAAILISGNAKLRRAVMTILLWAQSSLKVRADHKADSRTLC
Summary of the method: as §1

| Compound | inhibition at 25 µM (hT2R10) | inhibition at 25 µM (hT2R7) | screening result against bitter receptor 44 (hT2R44) | inhibition at 25 µM (hT2R75) | inhibition at 25 µM (hT2R9) | screening result against bitter receptor 65 (hT2R65) | inhibition at 25 µM (hT2R5) | inhibition at 25 µM (hT2R61) | inhibition at 25 µM (hT2R64) | inhibition at 25 µM (hT2R13) | inhibition at 25 µM (hT2R71) | screening result against bitter receptor 63 (hT2R63) | inhibition at 25 µM (hT2R3) | IC50 (hT2R14 [1]) | inhibition at 25 µM (hT2R14 [2]) | screening result against bitter receptor 55 (hT2R55) | inhibition at 25 µM (hT2R16) | inhibition at 25 µM (hT2R51) |
| --- | --- | --- | --- | --- | --- | --- | --- | --- | --- | --- | --- | --- | --- | --- | --- | --- | --- | --- |
| Cc1ccc(S(=O)(=O)N(Cc2ccc(F)cc2)CC2CCC(C(=O)O)CC2)cc1 (stereo not drawn) [Example 5-20, 4-((N-(4-fluorobenzyl)-4-methylphenylsulfonamido)methyl)-cyclohexanecarboxylic acid] | 40 to 60% | 20 to 40% | +++ (60% to 80% inhibition = +++) | 40 to 60% | 20 to 40% | + (20% to 40% inhibition = +) | 20 to 40% | > 80% | 60 to 80% | 20 to 40% | 40 to 60% | ++ (40% to 60% inhibition = ++) | > 80% | 0.083 µM | > 80% | ++++ (80% or greater inhibition = ++++) | 40 to 60% |  |
| COc1ccc(CN(Cc2ccc(OC)cc2)S(=O)(=O)c2ccc(C(=O)O)cc2)cc1 [Example 5-30, 4-(N,N-bis(4-methoxybenzyl)sulfamoyl)benzoic acid] | 40 to 60% | 20 to 40% | +++ (60% to 80% inhibition = +++) | 20 to 40% | 20 to 40% |  | 20 to 40% |  | > 80% | 20 to 40% | 60 to 80% | ++++ (80% or greater inhibition = ++++) | 40 to 60% | 4.14 µM | > 80% | ++++ (80% or greater inhibition = ++++) | 20 to 40% | 40 to 60% |
